Ki data for two compounds are collected here from ChEMBL document CHEMBL1157922, “Design of new dopamine D2 receptor ligands: biosynthesis and pharmacological evaluation of the hydroxylated metabolite of LASSBio-581” (Bioorg Med Chem Lett, 2010).

A short description of assay [1]: Displacement of [3H]YM-9151-2 from D2 like receptor in rat striatal membrane. In kind it is cell membranes, Striatum. In general terms: Displacement assays read how much labelled ligand stays bound in the presence of the test substance.
In assay [2] the target is 5-hydroxytryptamine receptor 2A (Rattus norvegicus, UniProt P14842). Nature of the assay: Displacement of [3H]ketanserin from 5HT2A receptor in rat cortex membrane. In kind it is cell membranes.
Chain of 5-hydroxytryptamine receptor 2A (P14842 whole entry): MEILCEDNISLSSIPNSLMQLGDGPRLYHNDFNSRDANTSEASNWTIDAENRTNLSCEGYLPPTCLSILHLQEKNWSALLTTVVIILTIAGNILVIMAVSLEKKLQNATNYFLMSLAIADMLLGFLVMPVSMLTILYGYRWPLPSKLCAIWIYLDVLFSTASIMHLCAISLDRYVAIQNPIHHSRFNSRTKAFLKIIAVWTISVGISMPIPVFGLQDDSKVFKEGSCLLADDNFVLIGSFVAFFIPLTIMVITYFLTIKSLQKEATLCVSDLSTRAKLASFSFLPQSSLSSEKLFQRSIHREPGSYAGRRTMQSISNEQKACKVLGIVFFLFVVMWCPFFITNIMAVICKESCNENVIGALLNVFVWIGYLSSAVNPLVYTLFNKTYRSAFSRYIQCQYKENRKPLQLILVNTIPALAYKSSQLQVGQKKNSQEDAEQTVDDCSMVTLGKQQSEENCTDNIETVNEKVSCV

The compound `Oc1ccc(N2CCN(Cc3cn(-c4ccc(Cl)cc4)nn3)CC2)cc1` displayed a Ki in assay [1] of 1700 nM. As to `Clc1ccc(-n2cc(CN3CCN(c4ccccc4)CC3)nn2)cc1`, the Ki in assay [1] came to 950 nM; in assay [2], 11000 nM.

The term Ki denotes the dissociation constant of the complex between target and ligand, obtained from inhibition or displacement.
